The values below come from patent US5451522A, “Genes encoding and method of expressing an enzyme: phthalyl amidase” (priority 1994, dated 1995).

One assay concerns Xanthobacter agilis. Put plainly: Induction of phthalyl amidase in Xanthobacter agilis cultures. Format: cell-based. To be noted: for effect on wet weight cell mass (in words): Table 1 summary; for Total units/mg protein: cell-free lysate, chromogenic substrate II; for Cell weight: 48 hours growth in Bac MI medium. The protocol: Three compounds at different concentrations were added to aerated cultures of the organism growing at 30° C. in Bac MI medium. The compounds tested were phthalate (PAA), phthalyl glycine (PAG), and PMBL. Cells of Xanthobacter agilis were grown with aeration for 24 hours. This vegetative culture was used to inoculate Bac MI medium (50 ml) containing different concentrations of the compounds to be tested. After 48 hours growth under standard conditions, cells were harvested by centrifugation and wet weight of the cells was determined. Crude cell extracts were prepared by lysozyme treatment of the cells as in Example 1. Suspensions were briefly sonicated to break up the viscous suspension. A cell-free supernatant was obtained by centrifugation of the suspension at 14,000 rpm for 15 minutes.
Enzyme activity in cell-free lysates was determined by monitoring conversion of the chromogenic substrate 4-(2'-carboxy-N-benzoyl)amino-2-carboxy-nitrobenzene (II) to 2-nitro-5-amino benzoic acid and phthalic acid, a reaction catalyzed by phthalyl amidase as shown below: [drawing 4]
The assay reaction mixture (1 ml) consisted of 0.3 μmol of the chromogenic substrate (II) and 0.001-0.5 μg of enzyme preparation in 50 mM potassium phosphate buffer, pH 8.0 (buffer A). The enzymatic reaction was conducted at 30° C. for 10 minutes and the appearance of product was monitored at 380 nm (or 430 nm). The amount of substrate hydrolyzed was calculated from a standard curve of the amine product.

The next assay has as its target T1, phthalyl amidase (Xanthobacter agilis, UniProt P0C2Y0).
T1 construct: 42-aa signal peptide removed
Description: Chiral and additional substrate selectivity of phthalyl amidase. It is filed as biochemical. To be noted: Table 13; for Relative Activity: III = 100, 0.009 mg (0.6 units) enzyme, 2.5 μmol substrate, buffer A, 30° C. As to the method: Several additional substrates were tested in a total volume of 1 ml. […] Reactions were stopped by the addition of methanol, and phthalic acid formation was monitored by HPLC.

T1 sequence (P0C2Y0 2-453): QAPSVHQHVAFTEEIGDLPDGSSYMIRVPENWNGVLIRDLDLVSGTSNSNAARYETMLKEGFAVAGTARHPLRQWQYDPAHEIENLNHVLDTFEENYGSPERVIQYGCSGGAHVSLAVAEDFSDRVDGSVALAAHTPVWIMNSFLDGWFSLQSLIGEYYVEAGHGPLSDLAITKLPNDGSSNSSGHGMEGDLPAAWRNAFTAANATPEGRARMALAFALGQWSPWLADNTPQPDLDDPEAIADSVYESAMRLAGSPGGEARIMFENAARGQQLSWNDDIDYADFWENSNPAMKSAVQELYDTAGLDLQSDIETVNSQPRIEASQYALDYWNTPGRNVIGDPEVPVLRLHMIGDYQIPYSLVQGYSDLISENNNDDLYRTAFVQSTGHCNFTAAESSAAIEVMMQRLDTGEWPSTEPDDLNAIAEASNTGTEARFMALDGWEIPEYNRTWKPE

Take `O=C(O)CNC(=O)c1ccccc1C(=O)O` [PAG, phthalyl glycine]: the “effect on wet weight cell mass (in words)” value in the assay on Xanthobacter agilis is given as “increased”. In the assay with Xanthobacter agilis (inducer addition 1 mg/ml), this molecule showed a Units/g cells of 1.04 Units/g cells and a Total units/mg protein of 0.35 µmol/min/mg. In the assay with Xanthobacter agilis (inducer addition 5 mg/ml), the Units/g cells worked out at 9.4 Units/g cells, the Cell weight was found to be 0.5 g/50 ml and the Total units/mg protein was 4.4 µmol/min/mg.
For `O=C(O)c1ccccc1C(=O)N[C@H](C(=O)O)c1ccccc1` [Compound XXX], on phthalyl amidase, the “substrate selectivity (in words)” value is reported as “poor substrates” and the “Relative Activity” value is recorded as 1.3. In addition, the “substrate selectivity (in words)” value on phthalyl amidase (listed as L isomer) is listed as “extremely poor substrate”.
Turning to `O=C(O)c1ccccc1C(=O)O` [PAA, phthalate], the Units/g cells with Xanthobacter agilis (inducer addition 1 mg/ml) was 3.9 Units/g cells; with Xanthobacter agilis (inducer addition 2 mg/ml), 9.3 Units/g cells; in the assay on Xanthobacter agilis (inducer addition 5 mg/ml), 5.5 Units/g cells; in the assay with Xanthobacter agilis (inducer addition 10 mg/ml), 19.8 Units/g cells. Also, the Total units/mg protein in the assay with Xanthobacter agilis (inducer addition 1 mg/ml) is 1.4 µmol/min/mg; in the assay with Xanthobacter agilis (inducer addition 2 mg/ml), 4.3 µmol/min/mg; in the assay on Xanthobacter agilis (inducer addition 5 mg/ml), 3.7 µmol/min/mg; in the assay on Xanthobacter agilis (inducer addition 10 mg/ml), 12.0 µmol/min/mg. Besides, the Cell weight in the assay with Xanthobacter agilis (inducer addition 5 mg/ml) was 0.7 g/50 ml; with Xanthobacter agilis (inducer addition 10 mg/ml) it was 0.6 g/50 ml.
As for `O=C(O)CN1C(=O)C(NC(=O)c2ccccc2C(=O)O)C1CCc1ccco1` (stereo not drawn) [PMBL], the “effect on wet weight cell mass (in words)” value with Xanthobacter agilis was “no effect”.
For the molecule `O=C(O)c1ccccc1C(=O)Nc1ccccc1` [Compound XXXI], at phthalyl amidase, the “substrate selectivity (in words)” value was “twice” and the “Relative Activity” value came out at 200.
As for `O=C(Nc1ccccc1)c1ccccc1S(=O)(=O)O` [XXXII], on phthalyl amidase, the “substrate selectivity (in words)” value was “poor substrates” and the “Relative Activity” value was found to be 0.0.
